This note sets out measurements from US9452986B2, “6-heteroaryloxy- or 6-aryloxy-quinoline-2-carboxamides and method of use” (AbbVie Inc., priority 2014, dated 2016).

Molecules are shown by their SMILES.

Sequence of recombinant human Nav1.7 (Q15858 whole entry): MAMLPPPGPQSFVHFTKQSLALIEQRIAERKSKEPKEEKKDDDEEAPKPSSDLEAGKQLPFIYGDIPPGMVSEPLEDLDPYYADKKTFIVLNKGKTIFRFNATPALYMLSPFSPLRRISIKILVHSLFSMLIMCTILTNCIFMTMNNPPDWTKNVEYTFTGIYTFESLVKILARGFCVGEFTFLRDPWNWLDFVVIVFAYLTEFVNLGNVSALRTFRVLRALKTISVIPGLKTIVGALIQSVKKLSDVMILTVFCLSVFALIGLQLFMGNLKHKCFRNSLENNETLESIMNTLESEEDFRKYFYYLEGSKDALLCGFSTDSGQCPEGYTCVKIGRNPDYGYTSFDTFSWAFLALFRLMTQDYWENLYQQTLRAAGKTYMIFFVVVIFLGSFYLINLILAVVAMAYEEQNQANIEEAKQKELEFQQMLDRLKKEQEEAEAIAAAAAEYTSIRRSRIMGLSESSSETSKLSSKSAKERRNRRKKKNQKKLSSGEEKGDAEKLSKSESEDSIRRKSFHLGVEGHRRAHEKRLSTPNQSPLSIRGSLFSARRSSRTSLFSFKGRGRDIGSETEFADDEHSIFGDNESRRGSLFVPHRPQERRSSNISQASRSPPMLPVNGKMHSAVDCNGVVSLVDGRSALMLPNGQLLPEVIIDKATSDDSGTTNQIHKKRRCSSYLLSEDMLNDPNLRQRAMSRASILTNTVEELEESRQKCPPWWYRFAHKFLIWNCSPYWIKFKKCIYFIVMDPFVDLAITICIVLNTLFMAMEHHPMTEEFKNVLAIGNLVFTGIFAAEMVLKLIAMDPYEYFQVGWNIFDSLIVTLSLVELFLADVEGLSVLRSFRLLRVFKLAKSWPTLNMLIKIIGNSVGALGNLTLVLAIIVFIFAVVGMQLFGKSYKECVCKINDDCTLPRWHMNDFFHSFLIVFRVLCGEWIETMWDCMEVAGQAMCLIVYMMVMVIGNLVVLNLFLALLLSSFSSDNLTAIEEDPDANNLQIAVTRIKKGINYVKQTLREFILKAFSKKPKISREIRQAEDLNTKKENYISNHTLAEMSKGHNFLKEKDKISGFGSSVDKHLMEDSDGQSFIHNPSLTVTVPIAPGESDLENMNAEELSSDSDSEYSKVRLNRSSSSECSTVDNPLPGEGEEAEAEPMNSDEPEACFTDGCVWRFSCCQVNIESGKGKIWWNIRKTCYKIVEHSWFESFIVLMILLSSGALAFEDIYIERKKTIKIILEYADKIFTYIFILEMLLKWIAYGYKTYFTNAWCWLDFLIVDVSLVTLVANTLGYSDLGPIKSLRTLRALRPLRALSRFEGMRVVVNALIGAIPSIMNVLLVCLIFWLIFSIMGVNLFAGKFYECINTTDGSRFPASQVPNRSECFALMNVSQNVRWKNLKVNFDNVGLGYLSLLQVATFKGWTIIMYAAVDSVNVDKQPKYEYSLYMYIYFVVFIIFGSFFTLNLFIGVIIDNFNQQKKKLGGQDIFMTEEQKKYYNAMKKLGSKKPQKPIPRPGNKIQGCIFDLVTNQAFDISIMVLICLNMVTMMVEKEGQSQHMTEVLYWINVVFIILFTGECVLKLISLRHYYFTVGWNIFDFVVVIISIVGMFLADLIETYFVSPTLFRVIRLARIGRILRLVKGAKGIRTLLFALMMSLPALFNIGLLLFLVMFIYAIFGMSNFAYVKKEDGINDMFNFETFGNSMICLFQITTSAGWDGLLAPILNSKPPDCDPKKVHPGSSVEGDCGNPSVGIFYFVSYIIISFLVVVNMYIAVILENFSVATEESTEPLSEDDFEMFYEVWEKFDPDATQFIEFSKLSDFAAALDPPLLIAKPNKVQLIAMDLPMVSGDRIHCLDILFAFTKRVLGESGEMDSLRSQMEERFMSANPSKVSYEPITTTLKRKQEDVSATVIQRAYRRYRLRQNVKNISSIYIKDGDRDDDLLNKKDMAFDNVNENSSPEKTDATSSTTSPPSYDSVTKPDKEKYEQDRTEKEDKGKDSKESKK

One assay has as its target recombinant human Nav1.7 (Homo sapiens (Human), UniProt Q15858). The assay is described as follows: FRET-based membrane potential assay, recombinant human sodium channel Nav1.7. Format: cell-based. As to conditions: HEK293 cells stably expressing recombinant human Nav1.7; veratridine + scorpion venom depolarization; read-out: FRET-Membrane Potential Nav1.7 IC50. The procedure, abridged: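 Channel activation used veratridine at its EC80, set by a dilution curve each experiment, together with Leiurus scorpion venom, added 3 min after compound. Membrane-potential ratio signals from FLIPR Tetra in HEPES-buffered HBSS were fitted to a four-parameter Hill equation for percent inhibition and IC50.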
Consider `O=C(c1ccc2cc(Oc3ccc(C(F)(F)F)cn3)ccc2n1)N1CC2(C1)OCCO2` [Example 476, 5,8-dioxa-2-azaspiro[3.4]oct-2-yl(6-{[5-(trifluoromethyl)pyridin-2-yl]oxy}quinolin-2-yl)methanone], for which the IC50 stood at 3920 nM.
Still for that read-out and setting: next, `O=C(N[C@@H]1CS(=O)(=O)C[C@H]1O)c1ccc2cc(Oc3ccc(C(F)F)cn3)ccc2n1` [Example 477, 6-{[5-(difluoromethyl)pyridin-2-yl]oxy}-N-[(3S,4S)-4-hydroxy-1,1-dioxidotetrahydrothiophen-3-yl]quinoline-2-carboxamide]: 5510 nM; `O=C(c1ccc2cc(Oc3ccc(C(F)(F)F)cn3)ccc2n1)N1CC2OCOC2C1` (stereo not drawn) [Example 478, tetrahydro-5H-[1,3]dioxolo[4,5-c]pyrrol-5-yl(6-{[5-(trifluoromethyl)pyridin-2-yl]oxy}quinolin-2-yl)methanone]: 5940 nM.
Regarding `CS(=O)(=O)C1CN(C(=O)c2ccc3cc(Oc4ccc(C(F)F)cn4)ccc3n2)C1` [Example 479, (6-{[5-(difluoromethyl)pyridin-2-yl]oxy}quinolin-2-yl)[3-(methylsulfonyl)azetidin-1-yl]methanone], the IC50 came out at 3190 nM.
On the same count and under the same terms, the figure for `CN(C(=O)c1ccc2cc(Oc3ccc(C(F)(F)F)cn3)ccc2n1)C1COC1` [Example 480, N-methyl-N-(oxetan-3-yl)-6-{[5-(trifluoromethyl)pyridin-2-yl]oxy}quinoline-2-carboxamide] is 19900 nM; for `O=C(NC1CC[S+]([O-])CC1)c1ccc2cc(Oc3ccc(C(F)F)cn3)ccc2n1` (stereo not drawn) [Example 481, 6-{[5-(difluoromethyl)pyridin-2-yl]oxy}-N-(1-oxidotetrahydro-2H-thiopyran-4-yl)quinoline-2-carboxamide] it is 2630 nM.
The same measure, in the same setting: the figure for `O=C(NC1CCC(F)(F)C1)c1ccc2cc(Oc3ccc(C(F)(F)F)cn3)ccc2n1` (stereo not drawn) [Example 485, N-(3,3-difluorocyclopentyl)-6-{[5-(trifluoromethyl)pyridin-2-yl]oxy}quinoline-2-carboxamide] is 3140 nM.
On the same count and under the same terms, the figure for `COCC1(F)CCN(C(=O)c2ccc3cc(Oc4ccc(C(F)(F)F)cn4)ccc3n2)C1` (stereo not drawn) [Example 487, [3-fluoro-3-(methoxymethyl)pyrrolidin-1-yl](6-{[5-(trifluoromethyl)pyridin-2-yl]oxy}quinolin-2-yl)methanone] is 919 nM; for `O=C(c1ccc2cc(Oc3ccc(C(F)(F)F)cn3)ccc2n1)N1CCC(F)(COc2ccncc2)C1` (stereo not drawn) [Example 489, {3-fluoro-3-[(pyridin-4-yloxy)methyl]pyrrolidin-1-yl}(6-{[5-(trifluoromethyl)pyridin-2-yl]oxy}quinolin-2-yl)methanone] it is 1100 nM; for `O=C(c1ccc2cc(Oc3ccc(C(F)(F)F)cn3)ccc2n1)N1CCC(F)(COc2cccnc2)C1` (stereo not drawn) [Example 490, {3-fluoro-3-[(pyridin-3-yloxy)methyl]pyrrolidin-1-yl}(6-{[5-(trifluoromethyl)pyridin-2-yl]oxy}quinolin-2-yl)methanone] it is 1420 nM.
In the case of `O=C(c1ccc2cc(Oc3ccc(C(F)(F)F)cn3)ccc2n1)N1CCC(F)(COc2ccccc2)C1` (stereo not drawn) [Example 491, [3-fluoro-3-(phenoxymethyl)pyrrolidin-1-yl](6-{[5-(trifluoromethyl)pyridin-2-yl]oxy}quinolin-2-yl)methanone], the IC50 was 4990 nM.
The same measure, in the same setting: next, `O=C(NCC1CN(C(=O)c2ccc3cc(Oc4ccc(C(F)(F)F)cn4)ccc3n2)CC1F)OCc1ccccc1` (stereo not drawn) [Example 492, benzyl ({4-fluoro-1-[(6-{[5-(trifluoromethyl)pyridin-2-yl]oxy}quinolin-2-yl)carbonyl]pyrrolidin-3-yl}methyl)carbamate]: 858 nM; `COCCOCC1(F)CCN(C(=O)c2ccc3cc(Oc4ccc(C(F)(F)F)cn4)ccc3n2)C1` (stereo not drawn) [Example 493, {3-fluoro-3-[(2-methoxyethoxy)methyl]pyrrolidin-1-yl}(6-{[5-(trifluoromethyl)pyridin-2-yl]oxy}quinolin-2-yl)methanone]: 802 nM.
Still for that read-out and setting: next, `O=C(c1ccc2cc(Oc3ccc(C(F)(F)F)cn3)ccc2n1)N1CCC2(COC2)C1` [Example 494, 2-oxa-6-azaspiro[3.4]oct-6-yl(6-{[5-(trifluoromethyl)pyridin-2-yl]oxy}quinolin-2-yl)methanone]: 9320 nM.
Still for that read-out and setting: next, `O=C(c1ccc2cc(Oc3ccc(C(F)(F)F)cn3)ccc2n1)N1C[C@@H](F)C[C@@H]1CO` [Example 495, [(2R,4S)-4-fluoro-2-(hydroxymethyl)pyrrolidin-1-yl](6-{[5-(trifluoromethyl)pyridin-2-yl]oxy}quinolin-2-yl)methanone]: 1690 nM.
Turning to `O=C(c1ccc2cc(Oc3ccc(C(F)(F)F)cn3)ccc2n1)N1CC(F)(F)C[C@@H]1CO` [Example 496, [(2R)-4,4-difluoro-2-(hydroxymethyl)pyrrolidin-1-yl](6-{[5-(trifluoromethyl)pyridin-2-yl]oxy}quinolin-2-yl)methanone], the IC50 was 2910 nM.
`O=C(c1ccc2cc(Oc3ccc(C(F)(F)F)cn3)ccc2n1)N1CC(F)(F)C[C@H]1CO` [Example 497, [(2S)-4,4-difluoro-2-(hydroxymethyl)pyrrolidin-1-yl](6-{[5-(trifluoromethyl)pyridin-2-yl]oxy}quinolin-2-yl)methanone]: the IC50 turned out to be 3430 nM.
As for `COc1cccc(N2CCN(C(=O)c3ccc4cc(Oc5ccc(C(F)(F)F)cn5)ccc4n3)CC2=O)c1` [Example 498, 1-(3-methoxyphenyl)-4-[(6-{[5-(trifluoromethyl)pyridin-2-yl]oxy}quinolin-2-yl)carbonyl]piperazin-2-one], the IC50 was determined as 923 nM.
On the same count and under the same terms, the figure for `O=C(NC1CSC1)c1ccc2cc(Oc3ccc(C(F)(F)F)cn3)ccc2n1` [Example 499, N-(thietan-3-yl)-6-{[5-(trifluoromethyl)pyridin-2-yl]oxy}quinoline-2-carboxamide] is 938 nM; for `Cc1ccccc1NC(=O)CCNC(=O)c1ccc2cc(Oc3ccc(C(F)(F)F)cn3)ccc2n1` [Example 500, N-{3-[(2-methylphenyl)amino]-3-oxopropyl}-6-{[5-(trifluoromethyl)pyridin-2-yl]oxy}quinoline-2-carboxamide] it is 293 nM.
For the compound `COc1ccccc1N1CC(NC(=O)c2ccc3cc(Oc4ccc(C(F)(F)F)cn4)ccc3n2)CC1=O` (stereo not drawn) [Example 502, N-[1-(2-methoxyphenyl)-5-oxopyrrolidin-3-yl]-6-{[5-(trifluoromethyl)pyridin-2-yl]oxy}quinoline-2-carboxamide], the IC50 amounted to 429 nM.
Same read-out and setting: next, `O=C(NC1C[S+]([O-])C1)c1ccc2cc(Oc3ccc(C(F)(F)F)cn3)ccc2n1` (stereo not drawn) [Example 503, N-(1-oxidothietan-3-yl)-6-{[5-(trifluoromethyl)pyridin-2-yl]oxy}quinoline-2-carboxamide]: 586 nM.
On the same count and under the same terms, next, `O=C(NC1CS(=O)(=O)C1)c1ccc2cc(Oc3ccc(C(F)(F)F)cn3)ccc2n1` [Example 504, N-(1,1-dioxidothietan-3-yl)-6-{[5-(trifluoromethyl)pyridin-2-yl]oxy}quinoline-2-carboxamide]: 593 nM; `CC(=O)C1CN(C(=O)c2ccc3cc(Oc4ccc(C(F)(F)F)cn4)ccc3n2)C1` [Example 506, 1-{1-[(6-{[5-(trifluoromethyl)pyridin-2-yl]oxy}quinolin-2-yl)carbonyl]azetidin-3-yl}ethanone]: 781 nM; `O=C(c1ccc2cc(Oc3ccc(C(F)(F)F)cn3)ccc2n1)N1CC(F)C1` [Example 507, (3-fluoroazetidin-1-yl)(6-{[5-(trifluoromethyl)pyridin-2-yl]oxy}quinolin-2-yl)methanone]: 2180 nM.
Same read-out and setting: the figure for `O=C(c1ccc2cc(Oc3ccc(C(F)(F)F)cn3)ccc2n1)N1CC(F)(F)C1` [Example 508, (3,3-difluoroazetidin-1-yl)(6-{[5-(trifluoromethyl)pyridin-2-yl]oxy}quinolin-2-yl)methanone] is 3650 nM; for `CN(C)C(=O)[C@@H]1C[C@@H](F)CN1C(=O)c1ccc2cc(Oc3ccc(C(F)(F)F)cn3)ccc2n1` [Example 509, (4R)-4-fluoro-N,N-dimethyl-1-[(6-{[5-(trifluoromethyl)pyridin-2-yl]oxy}quinolin-2-yl)carbonyl]-L-prolinamide] it is 2640 nM; for `O=C(c1ccc2cc(Oc3ccc(C(F)(F)F)cn3)ccc2n1)N1CCN(Cc2ncco2)CC1` [Example 510, [4-(1,3-oxazol-2-ylmethyl)piperazin-1-yl](6-{[5-(trifluoromethyl)pyridin-2-yl]oxy}quinolin-2-yl)methanone] it is 7290 nM.

Still in this assay, the particulars now being: read-out: FRET-Membrane Potential Nav1.7 IC50.
As to `O=C(NCC1COC1)c1ccc2cc(Oc3ccc(C(F)(F)F)cn3)ccc2n1` [Example 482, N-(oxetan-3-ylmethyl)-6-{[5-(trifluoromethyl)pyridin-2-yl]oxy}quinoline-2-carboxamide], the IC50 worked out at 569 nM.
The same measure, in the same setting: the figure for `N#Cc1ccc(Oc2ccc3nc(C(=O)NC4CCNC(=O)C4)ccc3c2)cc1` (stereo not drawn) [Example 484, 6-(4-cyanophenoxy)-N-(2-oxopiperidin-4-yl)quinoline-2-carboxamide] is 879 nM; for `O=C(NC1CCC(F)(F)C1)c1ccc2cc(Oc3ccc(C(F)F)cn3)ccc2n1` (stereo not drawn) [Example 486, N-(3,3-difluorocyclopentyl)-6-{[5-(difluoromethyl)pyridin-2-yl]oxy}quinoline-2-carboxamide] it is 2540 nM; for `CCOCC1(F)CCN(C(=O)c2ccc3cc(Oc4ccc(C(F)(F)F)cn4)ccc3n2)C1` (stereo not drawn) [Example 488, [3-(ethoxymethyl)-3-fluoropyrrolidin-1-yl](6-{[5-(trifluoromethyl)pyridin-2-yl]oxy}quinolin-2-yl)methanone] it is 526 nM.
Still for that read-out and setting: the figure for `CN(C)C(=O)[C@H](Cc1ccccc1)NC(=O)c1ccc2cc(Oc3ccc(C(F)(F)F)cn3)ccc2n1` [Example 501, N-[(2S)-1-(dimethylamino)-1-oxo-3-phenylpropan-2-yl]-6-{[5-(trifluoromethyl)pyridin-2-yl]oxy}quinoline-2-carboxamide] is 734 nM.

Usually IC50 stands for the point on the concentration scale where inhibition reaches its midpoint.
